Here are results for 17 compounds from PMC9501035, “Synthesis of Novel N-Methylmorpholine-Substituted Benzimidazolium Salts as Potential α-Glucosidase Inhibitors” (Molecules, 2022).

Assay [1] deals with α-glucosidase. Put plainly: In vitro α-glucosidase inhibition (spectroscopic method). The assay is classed as biochemical. As to conditions: means of experiments, n = 3. As for the experimental part:
α-Glucosidase inhibitions were determined following a modified spectroscopic method. The detailed protocol was already reported. Each experiment was carried out thrice, and percentage inhibitions were determined with the help of the following expression, followed by the determination of IC50 values:% Inhibition = [(Acontrol − Asample)/Acontrol] × 100 where ‘A’ stands for absorbance.

For assay [2], the target named is α-glucosidase. Particulars: cited from earlier work.
Setting [3] is: structural hybrids with piperazine and morpholine.

Where “and” joins values, the source holds several entries; their conditions need not be identical. Equal entries are not always repeated. Where two headings read alike, the source gives them in different places.

In general, IC50 refers to the midpoint of a concentration-inhibition curve. Turning to `O=C(C[n+]1c(CN2CCOCC2)n(Cc2ccccc2)c2ccccc21)Nc1ccc([N+](=O)[O-])cc1` [Compound 5g, 1-Benzyl-3-(2-((4-nitrophenyl)amino)-2-oxoethyl)-2-(morpholinomethyl)-1H-benzo[d]imidazol-3-ium chloride], at α-glucosidase [1], the IC50 was determined as 25 ± 0.106 µM.
Same read-out and setting: under `O=C(C[n+]1c(CN2CCOCC2)n(Cc2ccccc2)c2ccccc21)Nc1ccccc1Cl` [Compound 5a, 1-Benzyl-3-(2-((2-chlorophenyl)amino)-2-oxoethyl)-2-(morpholinomethyl)-1H-benzo[d]imidazol-3-ium chloride] stands 50 ± 0.04 µM; under `O=C(C[n+]1c(CN2CCOCC2)n(Cc2ccccc2)c2ccccc21)Nc1ccccc1[N+](=O)[O-]` [Compound 5e, 1-Benzyl-3-(2-((2-nitrophenyl)amino)-2-oxoethyl)-2-(morpholinomethyl)-1H-benzo[d]imidazol-3-ium chloride], 30 ± 0.11 µM.
Still for that read-out and setting: under `COc1ccccc1NC(=O)C[n+]1c(CN2CCOCC2)n(Cc2ccccc2)c2ccccc21` [Compound 5k, 1-Benzyl-3-(2-((2-methoxyphenyl)amino)-2-oxoethyl)-2-(morpholinomethyl)-1H-benzo[d]imidazol-3-ium chloride] stands 26 µM and 25 µM.
Same read-out and setting: under `COc1ccc(NC(=O)C[n+]2c(CN3CCOCC3)n(Cc3ccccc3)c3ccccc32)cc1` [Compound 5l, 1-Benzyl-3-(2-((4-methoxyphenyl)amino)-2-oxoethyl)-2-(morpholinomethyl)-1H-benzo[d]imidazol-3-ium chloride] stands 65 ± 0.015 µM; under `O=C(C[n+]1c(CN2CCOCC2)n(Cc2ccccc2)c2ccccc21)Nc1cccc([N+](=O)[O-])c1` [Compound 5f, 1-Benzyl-3-(2-((3-nitrophenyl)amino)-2-oxoethyl)-2-(morpholinomethyl)-1H-benzo[d]imidazol-3-ium chloride], 19 ± 0.06 µM; under `O=C(C[n+]1c(CN2CCOCC2)n(Cc2ccccc2)c2ccccc21)Nc1ccc(Cl)cc1` [Compound 5b, 1-Benzyl-3-(2-((4-chlorophenyl)amino)-2-oxoethyl)-2-(morpholinomethyl)-1H-benzo[d]imidazol-3-ium chloride], 35 ± 0.02 µM.
In the case of `CN1CCN(c2ccc3[nH]c(-c4ccc(O)cc4)nc3c2)CC1` [IV X=NMe], the concentration for half-maximal inhibition (IC50) at α-glucosidase [2] (setting [3]) is 2.25 ± 0.28 µM.
With `O=C(c1ccccc1)c1ccc2nc(-c3ccc(O)cc3)[nH]c2c1` [II], the IC50 at α-glucosidase [2] (benzoylarylbenzimidazoles) was 11.02 ± 0.04 µM.
On to `O=C(C[n+]1c(CN2CCOCC2)n(Cc2ccccc2)c2ccccc21)Nc1ccc(Br)cc1` [Compound 5d, 1-Benzyl-3-(2-((4-bromophenyl)amino)-2-oxoethyl)-2-(morpholinomethyl)-1H-benzo[d]imidazol-3-ium chloride], for which the half-maximal inhibitory concentration (IC50) on α-glucosidase [1] came to 15 ± 0.03 µM.
The compound `Cc1cccc(NC(=O)C[n+]2c(CN3CCOCC3)n(Cc3ccccc3)c3ccccc32)c1` [Compound 5i, 1-Benzyl-3-(2-((3-methylphenyl)amino)-2-oxoethyl)-2-(morpholinomethyl)-1H-benzo[d]imidazol-3-ium chloride] showed an IC50 at α-glucosidase [1] of 47 ± 0.05 µM.
For the compound `Oc1ccc(-c2nc3cc(N4CCOCC4)ccc3[nH]2)cc1` [IV X=O], at α-glucosidase [2] (setting [3]), the IC50 is 3.4 ± 0.86 µM.
The compound `Cc1ccc(NC(=O)C[n+]2c(CN3CCOCC3)n(Cc3ccccc3)c3ccccc32)cc1` [Compound 5j, 1-Benzyl-3-(2-((4-methylphenyl)amino)-2-oxoethyl)-2-(morpholinomethyl)-1H-benzo[d]imidazol-3-ium chloride] showed a half-inhibitory concentration (IC50) against α-glucosidase [1] of 88 ± 0.08 µM.
`Cc1ccccc1NC(=O)C[n+]1c(CN2CCOCC2)n(Cc2ccccc2)c2ccccc21` [Compound 5h, 1-Benzyl-3-(2-((2-methylphenyl)amino)-2-oxoethyl)-2-(morpholinomethyl)-1H-benzo[d]imidazol-3-ium chloride] came in with an IC50 against α-glucosidase [1] of 21 ± 0.076 µM.
Same read-out and setting: under `O=C(C[n+]1c(CN2CCOCC2)n(Cc2ccccc2)c2ccccc21)Nc1ccccc1Br` [Compound 5c, 1-Benzyl-3-(2-((2-bromophenyl)amino)-2-oxoethyl)-2-(morpholinomethyl)-1H-benzo[d]imidazol-3-ium chloride] stands 55 ± 0.14 µM.
In the case of `COc1ccc(/C(CSc2nc3ccccc3[nH]2)=N\N=C\c2ccc(OC)cc2O)cc1` [I], the IC50 at α-glucosidase [2] (benzimidazole-bearing Schiff bases) is 2.2 ± 0.1 µM.
`O=C(C[n+]1c(CN2CCOCC2)n(Cc2ccccc2)c2ccccc21)Nc1ccccc1` [Compound 5m, 1-Benzyl-2-(morpholinomethyl)-3-(2-oxo-2-(phenylamino)ethyl)-1H-benzo[d]imidazol-3-ium chloride] yielded an IC50 against α-glucosidase [1] of 110 ± 0.113 µM.
